Experimental data from patent US20140154317A1, “Pharmaceutical Composition for Treatment of Helicobacter Pylori Associated Diseases” (priority 2012, published 2014).

Tests used:
[1] = test system: gram positive and gram negative, aerobic, and anaerobic bacteria; details: in vivo or in vitro; cited from earlier work
[2] = cited from earlier work
CXCR4 [3] = assay: CXCR4 protein expression, Western blot of whole-cell extracts of gastric cancer cells; type: cell-based; details: 6 h, line not given
CXCR4 mRNA = CXCR4 mRNA expression by RT-PCR in AGS cells; type: cell-based; details: 5 μm
Experimental: (§1) (A) MDA-MB-231 (2×10^5 cells) were seeded in the top-chamber of the Matrigel. After pre-incubation with or without the composition according to Ex. 6 and its major active components (5 μm) for 6 h, transwell chambers were then placed into the wells of a 24-well plate, in which we had added either the basal medium only or basal medium containing 10 ng/ml CXCL12 for 24 h. After incubation, they were assessed for cell invasion. Columns indicate mean percentage of invaded cells; bars, S.E. *, P>0.05. (B) AGS (2×10^5 cells) were seeded in the top-chamber of the Matrigel. After preincubation with or without the composition and its major active components (5 μm) for 6 h, transwell chambers were then placed into the wells of a 24-well plate, in which we had added either the basal medium only or basal medium containing 100 ng/ml CXCL12 for 24 h. After incubation, the chambers were assessed for cell invasion. Columns indicate mean percentage of invaded cells; bars, S.E. *, P>0.05. Representative results of three independent experiments are shown. […] AGS cells were treated with 5 μm of the composition and its major active components for indicated times. Total RNA was isolated and analyzed by RT-PCR assay. […] Representative results of three independent experiments are shown. […] Cells were incubated with 5 μm of the active ingredients of the composition and its single major active components for indicated times. Whole-cell extracts were prepared and analyzed by Western blot analysis using antibodies against CXCR4. The same blots were stripped and reprobed with β-actin antibody to show equal protein loading. Representative results of three independent experiments are shown.

CXCR4 [4] = assay: CXCR4 protein expression, Western blot of whole-cell extracts of gastric cancer cells; type: cell-based; details: 5.0 μm, 6 h, line not given
Experimental: Different tumor cell types, namely gastric cancer (AGS, MKN45, and SNU16) cells were incubated with different components of the composition as well as a combination according to the finished product for 6 h. Whole-cell extracts were prepared and analyzed by Western blot analysis using antibody against CXCR4. The same blots were stripped and reprobed with β-actin antibody to show equal protein loading. Representative results of three independent experiments are shown.
The same experiment was carried out to find out whether the composition downregulates expression of CXCR4 in gastric (AGS, MKN45, and SNU16) cancer cell lines, which has never been investigated before. Cells were treated with 5 μm active ingredients of Ex. 6 and its major active components for 6 h before assessing the resultant effect on CXCR4 expression.
(A) MDA-MB-231 (2×10^5 cells) were seeded in the top-chamber of the Matrigel. After pre-incubation with or without the composition according to Ex. 6 and its major active components (5 μm) for 6 h, transwell chambers were then placed into the wells of a 24-well plate, in which we had added either the basal medium only or basal medium containing 10 ng/ml CXCL12 for 24 h. After incubation, they were assessed for cell invasion. Columns indicate mean percentage of invaded cells; bars, S.E. *, […]. (B) AGS (2×10^5 cells) were seeded in the top-chamber of the Matrigel. After preincubation with or without the composition and its major active components (5 μm) for 6 h, transwell chambers were then placed into the wells of a 24-well plate, in which we had added either the basal medium only or basal medium containing […] CXCL12 for 24 h. After incubation, the chambers were assessed for cell invasion. Columns indicate mean percentage of invaded cells; bars, S.E. *, […]. Representative results of three independent experiments are shown. […] Total RNA was isolated and analyzed by RT-PCR assay. […] Whole-cell extracts were prepared and analyzed by Western blot analysis using antibodies against CXCR4. […]

AGS cells = assay: Matrigel transwell invasion assay with CXCL12, AGS; type: cell-based; details: 5 μm, cell line not given
Experimental: as §1, with “[…],” for “After preincubation with or without the composition and its major active components (5 μm) for 6 h,”, “which we had added either the basal medium only or basal medium containing 100 ng/ml CXCL12 for 24 h.” left out

Compound | Resistance (in words) [1] | cumulative dose shown safe and well tolerated ([2]; cumulative doses) [g] | systemic dose shown safe and well tolerated ([2]; systemic doses) | Fold change (CXCR4 expression) (CXCR4 [3]; 0.5 μm) | Fold change (CXCR4 expression) (CXCR4 [3]; 1.0 μm) | Fold change (CXCR4 expression) (CXCR4 [3]; 2.5 μm) | mRNA fold change (CXCR4) (CXCR4 mRNA; time 0 hours) | mRNA fold change (CXCR4) (CXCR4 mRNA; time 2 hours) | mRNA fold change (CXCR4) (CXCR4 mRNA; time 6 hours) | mRNA fold change (CXCR4) (CXCR4 mRNA; time 8 hours) | mRNA fold change (CXCR4) (CXCR4 mRNA; time 12 hours) | mRNA fold change (CXCR4) (CXCR4 mRNA; time 24 hours) | Fold change (CXCR4 expression) (CXCR4 [4]) | Percentage of invade cells (AGS cells; time 0 hours) [%] | Percentage of invade cells (AGS cells; time 2 hours) [%] | Percentage of invade cells (AGS cells; time 6 hours) [%] | Percentage of invade cells (AGS cells; time 8 hours) [%] | Percentage of invade cells (AGS cells; time 12 hours) [%] | Percentage of invade cells (AGS cells; time 24 hours) [%]
O=S1(=O)CCN(CN2CCS(=O)(=O)NC2)CN1 [Taurolidine, [bis(1,1-dioxoperhydro-1,2,4-thiadiazinyl-4)]-methane] | has not been observed | ≥ 300 | exceeding 40 g/day | – | – | – | – | – | – | – | – | – | – | – | – | – | – | – | –
COc1ccc2[nH]c([S+]([O-])Cc3ncc(C)c(OC)c3C)nc2c1 (stereo not drawn) [PPI, Omeprazol] | – | – | – | 1.4 ± 0.02 | 0.96 ± 0.03 | 0.81 ± 0.05 | 0.92 ± 0.02 | 0.88 ± 0.021 | 0.67 ± 0.06 | 0.54 ± 0.04 | 0.41 ± 0.04 | 0.38 ± 0.04 | 0.46 ± 0.02 | 85.23 ± 11.51 | 82.10 ± 15.10 | 74.11 ± 6.25 | 60.12 ± 11.50 | 49.25 ± 7.26 | 39.25 ± 4.15
CC[C@H]1OC(=O)[C@H](C)[C@@H](O[C@H]2C[C@@](C)(OC)[C@@H](O)[C@H](C)O2)[C@H](C)[C@@H](O[C@@H]2O[C@H](C)C[C@H](N(C)C)[C@H]2O)[C@](C)(OC)C[C@@H](C)C(=O)[C@H](C)[C@@H](O)[C@]1(C)O [CLR, clarithromycin] | – | – | – | 1.3 ± 0.01 | 0.97 ± 0.01 | 0.79 ± 0.04 | 0.90 ± 0.05 | 0.78 ± 0.02 | 0.63 ± 0.03 | 0.50 ± 0.03 | 0.42 ± 0.03 | 0.37 ± 0.03 | 0.44 ± 0.01 | 85.23 ± 11.51 | 80.22 ± 10.25 | 77.26 ± 9.14 | 62.27 ± 6.50 | 55.20 ± 7.10 | 48.20 ± 6.15
CCS(=O)(=O)CCn1c([N+](=O)[O-])cnc1C [TND, tinidazole] | – | – | – | 1.4 ± 0.01 | 0.98 ± 0.01 | 0.85 ± 0.01 | 0.94 ± 0.02 | 0.83 ± 0.01 | 0.79 ± 0.04 | 0.65 ± 0.03 | 0.51 ± 0.03 | 0.39 ± 0.03 | 0.53 ± 0.03 | 85.23 ± 11.51 | 81.10 ± 14.20 | 72.55 ± 8.10 | 64.65 ± 10.11 | 51.33 ± 8.20 | 42.25 ± 8.55
